# Legend:
# [1] = Biodistribution of the 99mTc complexes in normal male Wistar rats; format: in vivo; details: 99mTc complex, rat; for Clearance (% ID) HBS 120 min / Blood 120 min / Heart 120 min / Liver 120 min / Lung 120 min / Muscle 120 min / Clearance (% ID) Urine (K, B, U) 120 min: 120 min p.i.; for Blood 5 min: 5 min p.i.; for Heart/blood / Heart/liver / Heart/lung / Heart/muscle: ratio of uptake, 120 min values
# Protocol: The ^99mTc complexes of Compounds 4, 5 and 7 were prepared as described in Example 8. […] Animals were anaesthetised with Halothane (6% in oxygen), injected with 0.1 ml (500 MBq/ml) Test Item, sacrificed, dissected and the samples assayed for radioactivity.
# [2] = Measurement of lipophilicity (LogP): octanol-water partition coefficient of the 99mTc complexes; format: physicochemical; details: for Log P (octanol/50 mM phosphate buffer): 99mTc complex of the compound, 1-octanol / 50 mM phosphate buffer pH 7.4, room temperature; for Log P: 99mTc complex, repeated in the biodistribution table
# Protocol: The tube was vortexed at room temperature for 1 min and then was centrifuged at high speed for 60 min. 0.1 ml samples of both phases were pipetted into other test tubes with adequate care to avoid cross contamination between the phases, and were counted in a Wallac Wizzard gamma-counter. The measurement was repeated three times.
# The partition coefficient, P, was calculated as follows: P=(cpm in octanol−(cpm background)/( (cpm in water−(cpm background).
# Usually the final partition coefficient value was expressed as log P.
SMILES,Clearance (% ID) HBS 120 min [1] [% ID],Blood 5 min [1] [% ID/G],Blood 120 min [1] [% ID/G],Heart 120 min [1] [% ID/G],Liver 120 min [1] [% ID/G],Lung 120 min [1] [% ID/G],Muscle 120 min [1] [% ID/G],Heart/blood [1],Heart/liver [1],Heart/lung [1],Heart/muscle [1],"Clearance (% ID) Urine (K, B, U) 120 min [1] [% ID]",Log P (octanol/50 mM phosphate buffer) [2],Log P [2]
"CCCCc1nc(Cl)c(CNC(=O)C(CC(C)C)NC(=O)CC(CNCCN)CNCCN)n1Cc1ccc(-c2ccccc2-c2nn[nH]n2)cc1 (centres unmarked) (99mTc complex, metal not drawn) [Compound 4]",74.65,3.26,0.91,0.44,6.52,1.84,0.34,0.49,0.07,0.24,1.3,21.13,+0.6,0.6
NCCNCC(CNCCN)CC(=O)NCc1ccccc1 [Compound 3],,,,,,,,,,,,,<−2,
NCCNCC(CCCCCCNC(=O)c1ccccc1)CNCCN [Compound 6],,,,,,,,,,,,,−1.8,

# Second part, the compound after the results:
Clearance (% ID) HBS 120 min [1] [% ID],Blood 5 min [1] [% ID/G],Blood 120 min [1] [% ID/G],Heart 120 min [1] [% ID/G],Liver 120 min [1] [% ID/G],Lung 120 min [1] [% ID/G],Muscle 120 min [1] [% ID/G],Heart/blood [1],Heart/liver [1],Heart/lung [1],Heart/muscle [1],"Clearance (% ID) Urine (K, B, U) 120 min [1] [% ID]",Log P (octanol/50 mM phosphate buffer) [2],Log P [2],SMILES
54.21,1.5,0.26,0.13,3.53,0.6,0.9,0.5,0.04,0.21,1.44,14.45,−0.1,−0.1,"CCCCc1nc(Cl)c(CNC(=O)C(CC(C)C)NC(=O)COCC(=O)NCCOCCOCCOCCNC(=O)CC(CNCCN)CNCCN)n1Cc1ccc(-c2ccccc2-c2nn[nH]n2)cc1 (centres unmarked) (99mTc complex, metal not drawn) [Compound 5]"
19.63,0.84,0.05,0.1,1.55,0.4,0.1,2,0.06,0.25,1,64.26,<−2,<−2,"CC[C@H](C)[C@H](NC(=O)[C@@H]1CCCN1C(=O)[C@H](Cc1cnc[nH]1)NC(=O)[C@@H](NC(=O)[C@H](Cc1ccc(O)cc1)NC(=O)[C@@H](NC(=O)[C@H](CCCNC(=N)N)NC(=O)NCCCCCCC(CNCCN)CNCCN)C(C)C)[C@@H](C)CC)C(=O)O (99mTc complex, metal not drawn) [Compound 7]"
